Test results from paper PMC5218480 (PLoS ONE, 2017).

Tested on: MV-4-11 cells
Assay: Gene expression microarray analysis (Affymetrix PrimeView) and GSEA
Assay type: cell-based, human
Parameters: RFU PODN (11730768_x_at) / Fold change /veh PODN (11730768_x_at) / RFU LINC00158 (11744669_a_at) / Fold change /veh LINC00158 (11744669_a_at) / RFU DUSP10 (11751237_a_at) / Fold change /veh DUSP10 (11751237_a_at) / RFU ID3 (11757404_x_at) / Fold change /veh ID3 (11757404_x_at) / RFU PLEKHG5 (11737974_s_at) / Fold change /veh PLEKHG5 (11737974_s_at) / RFU LRRC4B (11730491_at) / Fold change /veh LRRC4B (11730491_at) / RFU GIMAP4 (11747438_a_at) / Fold change /veh GIMAP4 (11747438_a_at) / RFU KRT8 (11758183_x_at) / Fold change /veh KRT8 (11758183_x_at) / RFU CNN1 (11734310_a_at) / Fold change /veh CNN1 (11734310_a_at) / RFU VPS37D (11726825_at) / Fold change /veh VPS37D (11726825_at) / RFU C10orf10 (11716522_x_at) / Fold change /veh C10orf10 (11716522_x_at) / RFU KIR2DL2 /// KIR2DL4 /// KIR2DL5A /// KIR2DL5B /// KIR2DS1 /// KIR2DS2 /// KIR2DS3 /// KIR2DS4 /// KIR3DL3 /// KIR3DL3 /// KIR3DS1 (11738374_at) / Fold change /veh KIR2DL2 /// KIR2DL4 /// KIR2DL5A /// KIR2DL5B /// KIR2DS1 /// KIR2DS2 /// KIR2DS3 /// KIR2DS4 /// KIR3DL3 /// KIR3DL3 /// KIR3DS1 (11738374_at) / RFU C1QL1 (11718748_at) / Fold change /veh C1QL1 (11718748_at) / RFU TMPRSS4 (11747572_a_at) / Fold change /veh TMPRSS4 (11747572_a_at) / RFU HAMP (11756126_x_at) / Fold change /veh HAMP (11756126_x_at) / RFU RNFT2 (11725882_a_at) / Fold change /veh RNFT2 (11725882_a_at) / RFU NR4A2 (11747474_a_at) / Fold change /veh NR4A2 (11747474_a_at) / RFU ABCC12 (11746883_a_at) / Fold change /veh ABCC12 (11746883_a_at) / RFU TMEM136 (11760407_x_at) / Fold change /veh TMEM136 (11760407_x_at) / RFU CLDN22 /// WWC2 (11732394_at) / Fold change /veh CLDN22 /// WWC2 (11732394_at) / RFU HLA-DPB1 (11760878_x_at) / Fold change /veh HLA-DPB1 (11760878_x_at) / RFU SPINT1 (11716480_a_at) / Fold change /veh SPINT1 (11716480_a_at) / RFU GAP43 (11754022_s_at) / Fold change /veh GAP43 (11754022_s_at) / RFU A4GNT (11735810_at) / Fold change /veh A4GNT (11735810_at) / RFU PRB3 (11715151_x_at) / Fold change /veh PRB3 (11715151_x_at) / RFU TUBB4B (11761932_at) / Fold change /veh TUBB4B (11761932_at) / RFU CAPN14 (11732068_a_at) / Fold change /veh CAPN14 (11732068_a_at) / RFU TMCC2 (11721928_a_at) / Fold change /veh TMCC2 (11721928_a_at) / RFU IRGQ (11745062_a_at) / Fold change /veh IRGQ (11745062_a_at) / RFU FAM174B (11720279_a_at) / Fold change /veh FAM174B (11720279_a_at) / RFU TMPRSS4 (11748680_a_at) / Fold change /veh TMPRSS4 (11748680_a_at) / RFU FAM212B (11763350_a_at) / Fold change /veh FAM212B (11763350_a_at) / RFU PLEKHG5 (11743358_a_at) / Fold change /veh PLEKHG5 (11743358_a_at) / RFU ZSCAN30 (11745921_a_at) / Fold change /veh ZSCAN30 (11745921_a_at) / RFU CMKLR1 (11741424_a_at) / Fold change /veh CMKLR1 (11741424_a_at) / RFU LOC101060620 /// MAPK8IP1 (11723275_at) / Fold change /veh LOC101060620 /// MAPK8IP1 (11723275_at) / RFU SPTSSB (11747773_x_at) / Fold change /veh SPTSSB (11747773_x_at) / RFU PRSS12 (11739890_at) / Fold change /veh PRSS12 (11739890_at) / RFU BIN1 (11741810_x_at) / Fold change /veh BIN1 (11741810_x_at) / RFU WNT11 (11732464_a_at) / Fold change /veh WNT11 (11732464_a_at) / RFU C10orf10 (11716521_a_at) / Fold change /veh C10orf10 (11716521_a_at) / RFU C5orf56 (11738089_at) / Fold change /veh C5orf56 (11738089_at) / RFU CYB561 (11721691_x_at) / Fold change /veh CYB561 (11721691_x_at) / RFU ANKRD19P (11752326_a_at) / Fold change /veh ANKRD19P (11752326_a_at) / RFU OR2T12 /// OR2T33 /// OR2T8 (11738714_s_at) / Fold change /veh OR2T12 /// OR2T33 /// OR2T8 (11738714_s_at) / RFU VCAN (11748164_a_at) / Fold change /veh VCAN (11748164_a_at) / RFU JSRP1 (11732532_at) / Fold change /veh JSRP1 (11732532_at) / RFU KRTAP10-11 (11738290_x_at) / Fold change /veh KRTAP10-11 (11738290_x_at) / RFU MYO3A (11730013_a_at) / Fold change /veh MYO3A (11730013_a_at) / RFU EBF3 (11725865_a_at) / Fold change /veh EBF3 (11725865_a_at) / RFU CAMK2N1 (11719241_x_at) / Fold change /veh CAMK2N1 (11719241_x_at) / RFU C5orf56 (11738088_a_at) / Fold change /veh C5orf56 (11738088_a_at) / RFU OLFML3 (11715873_a_at) / Fold change /veh OLFML3 (11715873_a_at) / RFU LOC100653217 /// NTM (11731650_a_at) / Fold change /veh LOC100653217 /// NTM (11731650_a_at) / RFU MAPK11 (11762145_a_at) / Fold change /veh MAPK11 (11762145_a_at) / RFU FIZ1 (11724087_x_at) / Fold change /veh FIZ1 (11724087_x_at) / RFU OASL (11726364_x_at) / Fold change /veh OASL (11726364_x_at) / RFU SOX15 (11748057_x_at) / Fold change /veh SOX15 (11748057_x_at) / RFU CD79A (11719716_a_at) / Fold change /veh CD79A (11719716_a_at) / RFU HIST1H1D (11736915_at) / Fold change /veh HIST1H1D (11736915_at) / RFU CASKIN2 (11723855_a_at) / Fold change /veh CASKIN2 (11723855_a_at) / RFU LOC730098 (11760151_x_at) / Fold change /veh LOC730098 (11760151_x_at) / RFU OR4N2 (11742367_at) / Fold change /veh OR4N2 (11742367_at) / RFU PRRT2 (11749266_a_at) / Fold change /veh PRRT2 (11749266_a_at) / RFU SNX32 (11753110_a_at) / Fold change /veh SNX32 (11753110_a_at) / RFU CDHR5 (11726645_a_at) / Fold change /veh CDHR5 (11726645_a_at) / RFU RCAN1 (11760418_a_at) / Fold change /veh RCAN1 (11760418_a_at) / RFU FAM167A (11723789_a_at) / Fold change /veh FAM167A (11723789_a_at) / RFU FAM26E (11764081_at) / Fold change /veh FAM26E (11764081_at) / RFU ISYNA1 (11749810_s_at) / Fold change /veh ISYNA1 (11749810_s_at) / RFU ACY1 (11761880_at) / Fold change /veh ACY1 (11761880_at) / RFU 11764098_at / Fold change /veh 11764098_at / RFU SAMD14 (11745864_x_at) / Fold change /veh SAMD14 (11745864_x_at) / RFU NPB (11741838_a_at) / Fold change /veh NPB (11741838_a_at) / RFU TMPRSS6 (11731388_a_at) / Fold change /veh TMPRSS6 (11731388_a_at) / RFU KRTAP10-2 (11738614_at) / Fold change /veh KRTAP10-2 (11738614_at) / RFU ARHGAP8 /// PRR5-ARHGAP8 (11727945_x_at) / Fold change /veh ARHGAP8 /// PRR5-ARHGAP8 (11727945_x_at) / RFU KRTAP5-7 /// NADSYN1 (11734609_at) / Fold change /veh KRTAP5-7 /// NADSYN1 (11734609_at) / RFU RASL12 (11751679_a_at) / Fold change /veh RASL12 (11751679_a_at) / RFU CDKN2B (11736163_a_at) / Fold change /veh CDKN2B (11736163_a_at) / RFU PRF1 (11729649_at) / Fold change /veh PRF1 (11729649_at) / RFU, ZNF638 /// ZNF638-IT1 / Fold change vs veh, ZNF638 /// ZNF638-IT1 / RFU, PANK3 / Fold change vs veh, PANK3 / RFU, SH3YL1 / Fold change vs veh, SH3YL1 / RFU, ZEB2 / Fold change vs veh, ZEB2 / RFU, NRIP1 / Fold change vs veh, NRIP1 / RFU, PTTG1IP / Fold change vs veh, PTTG1IP / RFU, CAPN2 / Fold change vs veh, CAPN2 / RFU, MED14 / Fold change vs veh, MED14 / RFU, SNORA58 / Fold change vs veh, SNORA58 / RFU, C1orf63 / Fold change vs veh, C1orf63 / RFU, LRRFIP1 / Fold change vs veh, LRRFIP1 / RFU, NDUFAF7 / Fold change vs veh, NDUFAF7 / RFU, SLC12A2 / Fold change vs veh, SLC12A2 / RFU, IBTK / Fold change vs veh, IBTK / RFU, ESF1 / Fold change vs veh, ESF1 / Fold change vs veh, TMEM50B / RFU, TAOK1 / Fold change vs veh, TAOK1 / RFU, ACBD3 / Fold change vs veh, ACBD3 / RFU, TMA16 / Fold change vs veh, TMA16 / RFU, RWDD3 / Fold change vs veh, RWDD3 / RFU, BCAT1 / Fold change vs veh, BCAT1 / RFU, EDEM3 / Fold change vs veh, EDEM3 / RFU, TMEM33 / Fold change vs veh, TMEM33 / RFU, WDR75 / Fold change vs veh, WDR75 / RFU, AHCTF1 / Fold change vs veh, AHCTF1 / RFU, TFRC / Fold change vs veh, TFRC / RFU, ZDHHC17 / Fold change vs veh, ZDHHC17 / RFU, NOM1 / Fold change vs veh, NOM1 / RFU, ARL8B / Fold change vs veh, ARL8B / RFU, ZBTB11 / Fold change vs veh, ZBTB11 / RFU, TAMM41 / Fold change vs veh, TAMM41 / RFU, KIAA1704 /// LOC100996395 / Fold change vs veh, KIAA1704 /// LOC100996395 / RFU, ING1 / Fold change vs veh, ING1 / RFU, TRMT61B / Fold change vs veh, TRMT61B / RFU, FUBP3 / Fold change vs veh, FUBP3 / RFU, TP53 / Fold change vs veh, TP53 / RFU, TNKS2 / Fold change vs veh, TNKS2 / RFU, ZFP14 / Fold change vs veh, ZFP14 / RFU, ACTR2 / Fold change vs veh, ACTR2 / RFU, PPP3R1 / Fold change vs veh, PPP3R1 / RFU, PIK3R1 / Fold change vs veh, PIK3R1 / RFU, HNRNPA1 / Fold change vs veh, HNRNPA1 / RFU, RNF170 / Fold change vs veh, RNF170 / RFU, ZNF28 / Fold change vs veh, ZNF28 / RFU, RNGTT / Fold change vs veh, RNGTT / RFU, OGT / Fold change vs veh, OGT / RFU, BRD1 / Fold change vs veh, BRD1 / RFU, MARS / Fold change vs veh, MARS / RFU, ZNF655 / Fold change vs veh, ZNF655 / RFU, FAHD1 / Fold change vs veh, FAHD1 / RFU, BDP1 / Fold change vs veh, BDP1 / RFU, LRRCC1 / Fold change vs veh, LRRCC1 / RFU, ARID1A / Fold change vs veh, ARID1A / RFU, ZNF146 / Fold change vs veh, ZNF146 / RFU, ZNF330 / Fold change vs veh, ZNF330 / RFU, GPN3 / Fold change vs veh, GPN3 / RFU, C9orf123 / Fold change vs veh, C9orf123 / RFU, N4BP2L2 / Fold change vs veh, N4BP2L2 / RFU, ARFIP1 / Fold change vs veh, ARFIP1 / RFU, FAM179B / Fold change vs veh, FAM179B / RFU, BCL10 / Fold change vs veh, BCL10 / RFU, UHRF1BP1L / Fold change vs veh, UHRF1BP1L / RFU, BET1 / Fold change vs veh, BET1 / RFU, CNOT2 / Fold change vs veh, CNOT2 / RFU, ZNF268 / Fold change vs veh, ZNF268 / Fold change vs veh, ZNF507 / RFU, DGCR2 / Fold change vs veh, DGCR2 / RFU, WDSUB1 / Fold change vs veh, WDSUB1 / Fold change vs veh, HSP90B1 /// MIR3652 / RFU, ADSS / Fold change vs veh, ADSS / RFU, GK / Fold change vs veh, GK / RFU, ZNF148 / Fold change vs veh, ZNF148 / RFU, TAF9 / Fold change vs veh, TAF9 / RFU, SLC1A5 / Fold change vs veh, SLC1A5 / RFU, SLMO2 / Fold change vs veh, SLMO2 / RFU, ABCC4 / Fold change vs veh, ABCC4 / RFU, LOC101060439 /// RAP1B / Fold change vs veh, LOC101060439 /// RAP1B / RFU, RFX7 / Fold change vs veh, RFX7 / RFU, GTPBP10 / Fold change vs veh, GTPBP10 / RFU, CNEP1R1 / Fold change vs veh, CNEP1R1 / RFU, BIVM-ERCC5 /// ERCC5 / Fold change vs veh, BIVM-ERCC5 /// ERCC5 / RFU, ILF3 / Fold change vs veh, ILF3 / RFU 11762660_at / Fold change /veh 11762660_at / RFU VCAN (11757783_s_at) / Fold change /veh VCAN (11757783_s_at) / RFU DDX43 (11728927_at) / Fold change /veh DDX43 (11728927_at) / RFU KRT8 (11758188_x_at) / Fold change /veh KRT8 (11758188_x_at) / RFU NKD1 (11759106_at) / Fold change /veh NKD1 (11759106_at) / RFU SRD5A1 (11742802_a_at) / Fold change /veh SRD5A1 (11742802_a_at) / RFU TPSAB1 /// TPSB2 (11721975_s_at) / Fold change /veh TPSAB1 /// TPSB2 (11721975_s_at) / RFU GSTM3 (11746129_a_at) / Fold change /veh GSTM3 (11746129_a_at) / RFU IL23R (11737362_x_at) / Fold change /veh IL23R (11737362_x_at) / RFU TMEM51 (11727254_a_at) / Fold change /veh TMEM51 (11727254_a_at) / RFU PIWIL2 (11732686_x_at) / Fold change /veh PIWIL2 (11732686_x_at) / RFU ORM1 (11744905_x_at) / Fold change /veh ORM1 (11744905_x_at) / RFU CCDC152 (11743942_at) / Fold change /veh CCDC152 (11743942_at) / RFU ECM1 (11717891_a_at) / Fold change /veh ECM1 (11717891_a_at) / RFU IL23R (11748794_a_at) / Fold change /veh IL23R (11748794_a_at) / RFU TNFAIP8L3 (11732012_x_at) / Fold change /veh TNFAIP8L3 (11732012_x_at) / RFU MBOAT4 (11741988_at) / Fold change /veh MBOAT4 (11741988_at) / RFU 11764193_at / Fold change /veh 11764193_at / RFU TMEM53 (11763286_at) / Fold change /veh TMEM53 (11763286_at) / RFU MAGEB2 (11727129_at) / Fold change /veh MAGEB2 (11727129_at) / RFU TMEM200A (11744735_a_at) / Fold change /veh TMEM200A (11744735_a_at) / RFU CCDC152 (11751479_a_at) / Fold change /veh CCDC152 (11751479_a_at) / RFU FAM211A (11726209_a_at) / Fold change /veh FAM211A (11726209_a_at) / RFU RGS16 (11746705_a_at) / Fold change /veh RGS16 (11746705_a_at) / RFU VCAN (11755009_s_at) / Fold change /veh VCAN (11755009_s_at) / RFU RHOB (11743442_s_at) / Fold change /veh RHOB (11743442_s_at) / RFU RGS16 (11720943_a_at) / Fold change /veh RGS16 (11720943_a_at) / RFU RGS16 (11720944_at) / Fold change /veh RGS16 (11720944_at) / RFU, VPS4B / Fold change vs veh, VPS4B / RFU, CREB1 / Fold change vs veh, CREB1 / RFU, DNAJC13 / Fold change vs veh, DNAJC13 / RFU, GNAQ / Fold change vs veh, GNAQ / RFU, CDK5R1 / Fold change vs veh, CDK5R1 / RFU, ZRANB3 / Fold change vs veh, ZRANB3 / RFU, CUL4A / Fold change vs veh, CUL4A / RFU, CCNY / Fold change vs veh, CCNY / RFU, UFL1 / Fold change vs veh, UFL1 / RFU, COG3 / Fold change vs veh, COG3 / RFU, DIAPH2 / Fold change vs veh, DIAPH2 / RFU, SKA2 / Fold change vs veh, SKA2 / RFU, AFF3 / Fold change vs veh, AFF3 / RFU, LMF1 / Fold change vs veh, LMF1 / RFU, IPO11 / Fold change vs veh, IPO11 / RFU, DFFB / Fold change vs veh, DFFB / RFU, FOXP1 / Fold change vs veh, FOXP1 / RFU, CARD8 / Fold change vs veh, CARD8 / RFU, STRN3 / Fold change vs veh, STRN3 / RFU, ADK / Fold change vs veh, ADK / RFU, RASSF2 / Fold change vs veh, RASSF2 / RFU, WIPF1 / Fold change vs veh, WIPF1 / RFU, LARP1B / Fold change vs veh, LARP1B / RFU, RASA1 / Fold change vs veh, RASA1 / RFU, RB1 / Fold change vs veh, RB1 / RFU, PPFIA1 / Fold change vs veh, PPFIA1 / RFU, MAT2A / Fold change vs veh, MAT2A / RFU, CCT5 / Fold change vs veh, CCT5 / RFU, WDR92 / Fold change vs veh, WDR92 / RFU, CUX1 / Fold change vs veh, CUX1 / RFU, TTC7A / Fold change vs veh, TTC7A / RFU, TMEM135 / Fold change vs veh, TMEM135 / RFU, DEPTOR / Fold change vs veh, DEPTOR / RFU, CPM / Fold change vs veh, CPM / RFU, DNAJB6 / Fold change vs veh, DNAJB6 / RFU, CACNA2D3 / Fold change vs veh, CACNA2D3 / RFU, DTX4 / Fold change vs veh, DTX4 / RFU, TFCP2 / Fold change vs veh, TFCP2 / RFU, GMCL1 /// GMCL1P1 / Fold change vs veh, GMCL1 /// GMCL1P1 / RFU, AEBP2 / Fold change vs veh, AEBP2 / RFU, SNHG1 /// SNORD22 /// SNORD25 /// SNORD26 /// SNORD27 /// SNORD28 /// SNORD29 /// SNORD31 / Fold change vs veh, SNHG1 /// SNORD22 /// SNORD25 /// SNORD26 /// SNORD27 /// SNORD28 /// SNORD29 /// SNORD31 / Fold change (Aza/veh), C12orf56 (ProbeSet 11735607_a_at) / Fold change (ACY-1035/veh), C12orf56 (ProbeSet 11735607_a_at) / Fold change (Aza/veh), FGFR1OP (ProbeSet 11751329_s_at) / Fold change (ACY-1035/veh), FGFR1OP (ProbeSet 11751329_s_at) / Fold change (Aza/veh), VPS36 (ProbeSet 11739960_a_at) / Fold change (ACY-1035/veh), VPS36 (ProbeSet 11739960_a_at) / RFU SYPL1 (11715823_x_at) / Fold change /veh SYPL1 (11715823_x_at) / RFU IGFBP7 (11715501_s_at) / Fold change /veh IGFBP7 (11715501_s_at) / RFU REEP3 (11722064_at) / Fold change /veh REEP3 (11722064_at) / RFU IGLL1 (11728026_x_at) / Fold change /veh IGLL1 (11728026_x_at): dose or concentration left out as unconfirmed
Details: ProbeSet 11753623_s_at; LIST D

Nc1ccc(-c2cccs2)cc1NC(=O)c1ccc2c(c1)cc(C1CC1)n2CCN1CCOCC1 [ACY-1035]
Fold change vs veh, LOC101060439 /// RAP1B: 0.85
